This test relates to Haemaphysalis longicornis. Kind of test: Test Example 10: Haemaphysalis longicornis, treated filter paper pouch. Format: in vivo. The note with it: 0.5 mg compound on filter paper 5×10 cm; non-blood sucking nymphal ticks; after 2 days. The method, then: In 1 mL of acetone, 0.5 mg of any one of the present compounds 1 to 48 was dissolved, and the solution was spread uniformly on one side of a filter paper (TOYO No. 2; 5×10 cm). After dried, the filter paper was folded into two, and the sides were clipped to make a pouch. Into the pouch, tested ticks (Haemaphysalis longicornis, non-blood sucking nymphal ticks, 10 ticks in a group) were placed. The pouch was clipped and sealed. After 2 days, the number of dead ticks was counted.
Compound `COc1ccccc1OC=C(C)C(=Nc1ccccc1)Oc1cccc(C)c1` [Compound 233, 3-methylphenyl 3-(2-methoxyphenyloxy)-2-methyl-N-phenyl-2-propenimidate] came in with a death rate of 100%.

The compound `CCc1cccc(OC(=Nc2ccccc2)C(C)=COc2ccccc2OC)c1` [Compound 234, 3-ethylphenyl 3-(2-methoxyphenyloxy)-2-methyl-N-phenyl-2-propenimidate] displayed a death rate of 100%.

The compound `COc1cccc(OC(=Nc2ccccc2)C(C)=COc2ccccc2OC)c1` [Compound 236, 3-methoxyphenyl 3-(2-methoxyphenyloxy)-2-methyl-N-phenyl-2-propenimidate] returned a death rate of 100%.

Compound `CCOc1cccc(OC(=Nc2ccccc2)C(C)=COc2ccccc2OC)c1` [Compound 237, 3-ethoxyphenyl 3-(2-methoxyphenyloxy)-2-methyl-N-phenyl-2-propenimidate] gave a death rate of 100%.

`COc1ccccc1OC=C(C)C(=Nc1ccccc1)Oc1cc(C)cc(C)c1` [Compound 238, 3,5-dimethylphenyl 3-(2-methoxyphenyloxy)-2-methyl-N-phenyl-2-propenimidate] returned a death rate of 100%.

Compound `COc1ccccc1OC=C(C)C(=Nc1ccc(C)cc1)Oc1ccccc1` [Compound 239, phenyl 3-(2-methoxyphenyloxy)-2-methyl-N-(4-methylphenyl)-2-propenimidate] had a death rate of 100%.

In turn, `COc1ccccc1OC=C(C)C(=Nc1ccc(C)cc1)Oc1cccc(C)c1` [Compound 240, 3-methylphenyl 3-(2-methoxyphenyloxy)-2-methyl-N-(4-methylphenyl)-2-propenimidate] had a death rate of 100%.

As to `CCc1cccc(OC(=Nc2ccc(C)cc2)C(C)=COc2ccccc2OC)c1` [Compound 241, 3-ethylphenyl 3-(2-methoxyphenyloxy)-2-methyl-N-(4-methylphenyl)-2-propenimidate], the death rate is listed as 100%.

`COc1cccc(OC(=Nc2ccc(C)cc2)C(C)=COc2ccccc2OC)c1` [Compound 242, 3-methoxyphenyl 3-(2-methoxyphenyloxy)-2-methyl-N-(4-methylphenyl)-2-propenimidate]: the death rate is 100%.

`CCOc1cccc(OC(=Nc2ccc(C)cc2)C(C)=COc2ccccc2OC)c1` [Compound 243, 3-ethoxyphenyl 3-(2-methoxyphenyloxy)-2-methyl-N-(4-methylphenyl)-2-propenimidate] yielded a death rate of 100%.

On to `COc1ccccc1OC=C(C)C(=Nc1ccc(C)cc1)Oc1cc(C)cc(C)c1` [Compound 244, 3,5-dimethylphenyl 3-(2-methoxyphenyloxy)-2-methyl-N-(4-methylphenyl)-2-propenimidate], for which the death rate amounted to 100%.

Take `COc1ccc(N=C(Oc2ccccc2)C(C)=COc2ccccc2OC)cc1` [Compound 245, phenyl N-(4-methoxyphenyl)-3-(2-methoxyphenyloxy)-2-methyl-2-propenimidate]: the death rate was found to be 100%.

`COc1ccc(N=C(Oc2cccc(C)c2)C(C)=COc2ccccc2OC)cc1` [Compound 246, 3-methylphenyl N-(4-methoxyphenyl)-3-(2-methoxyphenyloxy)-2-methyl-2-propenimidate] registered a death rate of 100%.

Turning to `CCc1cccc(OC(=Nc2ccc(OC)cc2)C(C)=COc2ccccc2OC)c1` [Compound 247, 3-ethylphenyl N-(4-methoxyphenyl)-3-(2-methoxyphenyloxy)-2-methyl-2-propenimidate], the death rate worked out at 100%.

The compound `COc1ccccc1OC=C(C)C(=Nc1ccc(C)c(C)c1)Oc1cccc(C)c1` [Compound 252, 3-methylphenyl N-(3,4-dimethylphenyl)-3-(2-methoxyphenyloxy)-2-methyl-2-propenimidate] yielded a death rate of 100%.

For the compound `COc1cccc(OC=C(C)C(=Nc2ccccc2)Oc2ccccc2)c1` [Compound 257, phenyl 3-(3-methoxyphenyloxy)-2-methyl-N-phenyl-2-propenimidate], the death rate is 100%.

With `COc1cccc(OC=C(C)C(=Nc2ccc(C)cc2)Oc2cccc(C)c2)c1` [Compound 261, 3-methylphenyl 3-(3-methoxyphenyloxy)-2-methyl-N-(4-methylphenyl)-2-propenimidate], the death rate is recorded as 100%.

`COc1ccc(OC=C(C)C(=Nc2ccccc2)Oc2ccccc2)cc1` [Compound 262, phenyl 3-(4-methoxyphenyloxy)-2-methyl-N-phenyl-2-propenimidate] had a death rate of 100%.

Consider `COc1ccc(OC=C(C)C(=Nc2ccccc2)Oc2cccc(OC)c2)cc1` [Compound 266, 3-methoxyphenyl 3-(4-methoxyphenyloxy)-2-methyl-N-phenyl-2-propenimidate], for which the death rate is on record as 100%.

Compound `COc1ccc(OC=C(C)C(=Nc2ccc(C)cc2)Oc2cccc(C)c2)cc1` [Compound 270, 3-methylphenyl 3-(4-methoxyphenyloxy)-2-methyl-N-(4-methylphenyl)-2-propenimidate] yielded a death rate of 100%.

`COc1ccc(OC=C(C)C(=Nc2ccc(C)cc2)Oc2ccc(C)cc2)cc1` [Compound 271, 4-methylphenyl 3-(4-methoxyphenyloxy)-2-methyl-N-(4-methylphenyl)-2-propenimidate] yielded a death rate of 100%.

`CCc1cccc(OC(=Nc2ccc(C)cc2)C(C)=COc2ccc(OC)cc2)c1` [Compound 272, 3-ethylphenyl 3-(4-methoxyphenyloxy)-2-methyl-N-(4-methylphenyl)-2-propenimidate]: the death rate is 100%.

In the case of `COc1ccc(OC=C(C)C(=Nc2ccc(C)cc2)Oc2cccc(OC)c2)cc1` [Compound 273, 3-methoxyphenyl 3-(4-methoxyphenyloxy)-2-methyl-N-(4-methylphenyl)-2-propenimidate], the death rate was 100%.

In the case of `COc1ccc(OC=C(C)C(=Nc2ccc(C)cc2)Oc2cc(C)cc(C)c2)cc1` [Compound 275, 3,5-dimethylphenyl 3-(4-methoxyphenyloxy)-2-methyl-N-(4-methylphenyl)-2-propenimidate], the death rate is recorded as 100%.

On to `COc1ccc(N=C(Oc2cccc(OC)c2)C(C)=COc2ccc(OC)cc2)cc1` [Compound 279, 3-methoxyphenyl N-(4-methoxyphenyl)-3-(4-methoxyphenyloxy)-2-methyl-2-propenimidate], for which the death rate came to 100%.

`COc1ccc(N=C(Oc2cc(C)cc(C)c2)C(C)=COc2ccc(OC)cc2)cc1` [Compound 281, 3,5-dimethylphenyl N-(4-methoxyphenyl)-3-(4-methoxyphenyloxy)-2-methyl-2-propenimidate] showed a death rate of 100%.

`CCc1cccc(OC(=Nc2ccc(C)c(C)c2)C(C)=COc2ccc(OC)cc2)c1` [Compound 284, 3-ethylphenyl N-(3,4-dimethylphenyl)-3-(4-methoxyphenyloxy)-2-methyl-2-propenimidate] gave a death rate of 100%.

Consider `CC(=COc1ccc(Oc2ccccc2)cc1)C(=Nc1ccccc1)Oc1ccccc1` [Compound 291, phenyl 2-methyl-3-(4-phenoxyphenyloxy)-N-phenyl-2-propenimidate], for which the death rate is listed as 100%.

The compound `CC(=COc1ccc(C)c(C)c1)C(=Nc1ccccc1)Oc1ccccc1` [Compound 292, phenyl 3-(3,4-dimethylphenyloxy)-2-methyl-N-phenyl-2-propenimidate] returned a death rate of 100%.

In turn, `CCC(=COc1ccccc1)C(=Nc1ccccc1)Sc1ccccc1` [Compound 300, phenyl 2-ethyl-3-phenoxy-N-phenyl-2-propenimidothioate] returned a death rate of 100%.

With `CCC(=COc1ccccc1)C(=Nc1ccccc1)Oc1ccccc1` [Compound 301, phenyl 2-ethyl-3-phenoxy-N-phenyl-2-propenimidate], the death rate turned out to be 100%.

`CCCC(=COc1ccccc1)C(=Nc1ccccc1)Oc1ccccc1` [Compound 322, phenyl 3-phenoxy-N-phenyl-2-n-propyl-2-propenimidate] registered a death rate of 100%.

For the origin of these results see US8278473B2, “Alpha, beta-unsaturated imidate compound and pesticidal composition containing the same” (Sumitomo Chemical Company, Limited, priority 2007, dated 2012).
